We go through one compound from ChEMBL document CHEMBL1158953, “The Structure of Clathrodin, a Novel Alkaloid Isolated from the Caribbean Sea Sponge Agelas clathrodes” (1991).

The test system of test [1] is CHO-K1. Put plainly: Cytotoxicity against CHOK1 cells. The test is classed as functional. The settings on record: Cricetulus griseus, read-out: ED50 (the source's name).
For test [2], the species on record is Rana temporaria. Put plainly: Inhibition of cholinergic receptor in frog skeletal muscle at 0.1 uM to 1000 uM.

Molecules are shown by their SMILES. ≈ marks a conversion by molar mass, not a printed value. Calls of active or inactive are those of the source. The rule behind the calls is not given here.

`Nc1ncc(/C=C/CNC(=O)c2ccc[nH]2)[nH]1` [CLATHRODIN]: in test [1], the EC50 was determined as 1.33 µg/mL (≈ 5.75 µM). Besides, the outcome in test [2] was Active.
